One assay has as its system Luc-SMNΔ7. Put plainly: Luc-SMNΔ7 degradation with proteolysis inhibitors in the presence of CHX. Conditions: for effect on decrease in Luc-SMNΔ7 signal: 5 hours in the presence of CHX. Type of assay: cell-based, human. As for the experimental part:
FIG. 5 is a graph depicting the effect of proteasome inhibitors on inhibiting SMNΔ7 degradation. Luciferase activity is measured after application of proteasome inhibitors (MG132 and Lactacystin), the calpain inhibitor (Calpeptin), the autophagy inhibitor (3-methyladenine; 3-MA), and the lysosomal inhibitor (ammonium chloride; NH4Cl) in the presence of CHX for 5 hours. Error bars represent SDs from three independent experiments.
(§1) Cells (293T cells) were transfected with plasmids expressing various constructs including Luc-SMN, Luc-SMNΔ7, GFP-YG+EMLA or GFP-NS. Forty-eight hours after transfection, the cells were treated with CHX (0.1 mg/ml) for various times as indicated and then assayed for luciferase activity. Luciferase activity at each time point was calculated by comparison to those at time 0, which was set to 100%. Luciferase activities were measured using One-Glo reagent (Promega).
SMN was previously shown to be degraded by the proteasome (Burnett et al., 2009, Mol Cell Biol 29(5):1107-15; Chang et al., 2004, Neurochem. Int. 45(7):1107-12). To determine if SMNΔ7 is also degraded by this system, cells expressing Luc-SMNΔ7 were treated with proteasome inhibitors including MG132 and Lactaeystin, for 5 hours in the presence of CHX. […] Inhibitors of other proteolytic activities, such as lysosomal proteases, autophagy, and calpain (N1-14Cl, 3-methyladenine, and calpeptin, respectively) had no effect.

For the next assay, the system named is SMN. Briefly: MG132 effect on amount of HA-tagged SMN (Western blot). In kind it is cell-based, human. To be noted: 10 μM MG132, 16 hours, 293T cells. Here is the method:
(§2) FIG. 3, comprising FIG. 3A through FIG. 3D, is a series of images depicting the importance of residue S270 for the activity of the SMNΔ7-DEG through YG+EMLA. FIG. 3A is a schematic illustration depicting seven residues in the YG box that were each mutated to alanine, as indicated. […] depicts the results of Western blot analyses using an anti-HA tag antibody directed against HA-tagged SMN, SMNΔ7, and SMNΔ7^S270A expressed in 293T cells treated with DMSO or 10 μM MG132 (MG) for 16 hours. Fusion proteins were monitored by, and Magoh was used as a control. FIG. 3C is a graph depicting the quantification of HA-tagged proteins depicted in FIG. 3B and compared to HA-SMN without MG132 treatment. Protein amount (%) for SMNΔ7, and SMNΔ7^S270A are calculated relative to HA-SMN not treated with MG132, that is arbitrarily set to 100%. The fold change of each fusion protein amount upon MG132 treatment is indicated in red above the column. […]
(§3) To identify specific residues in the SMN07-DEG that are important for its activity, mutagenesis of the YG box was performed wherein every second residue was converted to alanine in the context of full-length SMNΔ7 and determined the half-life of each in 293T cells. […] The levels of the tagged SMN proteins were then monitored by Western blots using anti-HA antibody (FIG. 3B).
On the technique in general: A western blot detects proteins with antibodies after separation by electrophoresis.

For the next assay, the system named is SMNΔ7. Briefly: MG132 effect on amount of HA-tagged SMNΔ7 (Western blot). In kind it is cell-based, human. To be noted: 10 μM MG132, 16 hours, 293T cells. Here is the method:
as §2, §3

For a further assay, the system named is SMNΔ7^S270A. Put plainly: MG132 effect on amount of HA-tagged SMNΔ7^S270A (Western blot). In kind it is cell-based, human. To be noted: 10 μM MG132, 16 hours, 293T cells. Here is the method:
as §2, §3

For a further assay, the system named is S5 cells. Briefly: Rescue of S5 cell viability after tetracycline depletion of SMN. To be noted: retroviral expression, one week after tetracycline (1 μg/ml). In kind it is cell-based, chicken. Here is the method:
FIG. 4, comprising FIG. 4A through FIG. 4D, is a series of images depicting the functionality of SMNΔ7^S270A in snRNP assembly and its ability to rescue SMN-deficient cells. FIG. 4 A is a series of panels depicting S5 cells cultured in the presence of tetracycline (1 μg/ml) to deplete endogenous SMN and infected with retroviruses expressing SMN, SMNΔ7, or SMNΔ7^S270A. FIG. 4B is a graph depicting cell growth as in FIG. 4A measured by monitoring the number of live cells at the indicated time points following tetracycline addition. FIG. 4C depicts the results of Western blot analyses of SMN protein in rescued cells (10 days after tetracycline addition). FIG. 4D is a graph depicting SMN complex activity (%) as measured by in vitro snRNP assembly on U4 snRNA in cytoplasmic extracts from rescued cells, using U4ΔSm RNA as a control.
S5 cells were maintained and infected with retroviruses expressing SMN, SMNΔ7, and SMNΔ7^S270A as described (Wang et al., 2001, J. Biol. Chem. 276:9599).
To determine whether SMNΔ7^S270A is a functional SMN protein, a previously established cell system, the S5 cell line, was used to investigate if SMNΔ7^S270A could rescue the viability of SMN-depleted cells. […]

The test system of a further assay is 293T cells. Put plainly: Protein stability assay: luciferase activity of Luc-fused constructs after CHX treatment. In kind it is cell-based.
Source text: To construct plasmids expressing Luc-fused proteins, the luciferase gene was cloned into pcDNA3.1 vector at HindIII/KpnI sites, then DNA fragments encoding full-length wild type human SMN, SMNΔ7, several deletion mutants of SMNΔ7, and optiPEST were inserted into the KpnI/XhoI sites. SMNΔ7 mutants with single amino acid change were generated by mutating residues in YG+EMLA to alanine by Quickchange site-directed mutagenesis kit (Stratagene).
as §1
A reporter system that recapitulates the differential stability of full-length SMN and SMNΔ7 and allows quantitative assessment of SMNΔ7's instability determinants was developed. […] Forty-eight hours after transfection, cells were treated with the protein synthesis inhibitor cycloheximide (CHX), and luciferase activity was measured at time intervals of up to 10 hours. […]

Peptide text beside a SMILES is read from it. * marks the point of attachment. Cbz = O=C(OCc1ccccc1)* A value given as a limit tells only on which side of the number the result lay.

In the case of `Cl.N` [N1-14Cl, ammonium chloride], the “effect on decrease in Luc-SMNΔ7 signal” value with Luc-SMNΔ7 is reported as “no effect”.

On to `CC(C)C[C@@H](C=O)NC(=O)[C@H](CC(C)C)NC(=O)[C@H](CC(C)C)NC(=O)OCc1ccccc1` [MG132] (Cbz-Leu-Leu-Leu-aldehyde), for which the “effect on decrease in Luc-SMNΔ7 signal” value with Luc-SMNΔ7 is “much smaller decrease”. The “effect on the amount of SMN” value in the assay with SMN was “only a moderate effect”. Also, the “increase in the amount of SMNΔ7” value with SMNΔ7 came out at 3.4 fold. Further, the “effect on the amount of SMNΔ7^S270A” value in the assay on SMNΔ7^S270A is given as “only a moderate effect”.

As to “SMN: full-length wild type human survival of motor neurons protein, tested as Luc- or HA-fusion or retrovirally expressed”, the “rescue of viability of SMN-depleted S5 cells” value in the assay on S5 cells is reported as “rescued the viability of S5 cells”. Further, the “half-life (t1/2)” value in the assay with 293T cells (Luc fusion in 293T cells, CHX 0.1 mg/ml, up to 10 hours) was over 8 h. In addition, the “amount of SMN relative to SMNΔ7” value in the assay on 293T cells (after 10 hours of CHX chase) was 3 times. Consider `Cn1cnc(N)c2ncnc1-2` [3-methyladenine], for which, in the assay with Luc-SMNΔ7, the “effect on decrease in Luc-SMNΔ7 signal” value is “no effect”.

For `CCCC[C@@H](C=O)NC(=O)[C@H](CC(C)C)NC(=O)OCc1ccccc1` [calpeptin], the “effect on decrease in Luc-SMNΔ7 signal” value in the assay on Luc-SMNΔ7 is reported as “no effect”. With `C[C@@H]1C[C@@H]([C@H](O)CC2CC(=O)NC(=O)C2)C(=O)[C@@H](C)C1` [CHX, cycloheximide], the “decrease in signal (luciferase)” value in the assay with Luc-SMNΔ7 (CHX alone, 5 hours, cells expressing Luc-SMNΔ7) stood at 60%. For the compound `CC(=O)N[C@@H](CSC(=O)[C@]1([C@@H](O)C(C)C)NC(=O)[C@H](C)[C@@H]1O)C(=O)O` [Lactacystin], the “effect on decrease in Luc-SMNΔ7 signal” value with Luc-SMNΔ7 is listed as “much smaller decrease”.
